Source: publication PMC6093650, “Antidepressive and anxiolytic effects of ostruthin, a TREK-1 channel activator” (PLoS ONE, 2018)

Experiments:
[1] = tested on: mice anxiety-like behavior; assay: elevated plus maze; format: in vivo; conditions: amlodipine experiment: single compound vs PBS, ostruthin 5 mg/kg or amlodipine 10 mg/kg, n = 6
Description: (§1) Male ICR mice (n = 317 in total) aged 5 weeks and weighing 32 ± 2 g were purchased from Shimizu Laboratory Supplies (Kyoto, Japan). For the social defeat stress test, we used 28 C57BL/6J mice (5 weeks old, Shimizu Laboratory Supplies) and 30 ICR mice (7–8 weeks old, Charles River Labs Japan, Yokohama, Kanagawa, Japan). Mice were maintained for at least 1 week prior to experiments. Animals were kept in groups in plastic cages. They had free access to food and water, and were kept in a 12-h light/dark cycle (08:00–20:00). Experiments were carried out between 10:00 and 18:00 in a quiet and air-conditioned experimental room, in which mice were habituated for at least 30 min before each experiment. Animal experiments were performed in accordance with the guidelines of the Physiological Society of Japan and were approved by the Committees on Animal Experiments at Kansai Medical University and the Kurashiki University of Science and the Arts. Ostruthin was initially dissolved in DMSO at higher concentration (100 mM) and then diluted in phosphate-buffered saline (PBS). The diluted solution was mixed vigorously for more than 10 min before the experiments, and an equal volume of DMSO was added to PBS as a control. PBS and ostruthin were administered intraperitoneally 30 min before mice behavioral tests (0.01 ml/g body weight). Each animal was used only once, except for the wheel running test, which was carried out immediately after elevated plus maze.
The elevated plus maze apparatus consisted of four arms set in a cross pattern from a neutral central square (6 × 6 cm). Two opposite arms were delimited by vertical walls (closed arms, 30 × 15 × 6 cm), whereas the other two arms had unprotected edges (open arms, 30 × 6 cm). The maze was elevated 40 cm above the floor. At the beginning of each 5 min test session, a mouse was placed in the central neutral area, facing one of the open arms. The total number of the entries to open arms and time spent in the open arms were measured. After removal of the animal, the apparatus was cleaned and wiped.

[2] = tested on: depression-like behavior of mice; assay: tail suspension test; format: in vivo; conditions: amlodipine experiment: single compound vs PBS, ostruthin 5 mg/kg or amlodipine 10 mg/kg, n = 9 and 13
Description: as §1
The tail suspension test was performed in accordance with a method reported previously. The mouse was hung on a hook using adhesive tape placed 2 cm from the extremity of its tail 50 cm above the table. The amount of time spent immobile was recorded for 5 min.

TREK-1 channel = biological target: T1, TREK-1 channel (Homo sapiens, UniProt O95069); assay: whole-cell patch-clamp of TREK-1 currents in TR-1 cells (293T stably expressing TREK-1); format: cell-based; conditions: bupivacaine 3 mM, after 100 μM ostruthin
T1 construct: expressed in transfected cells
T1 sequence (O95069 1-426): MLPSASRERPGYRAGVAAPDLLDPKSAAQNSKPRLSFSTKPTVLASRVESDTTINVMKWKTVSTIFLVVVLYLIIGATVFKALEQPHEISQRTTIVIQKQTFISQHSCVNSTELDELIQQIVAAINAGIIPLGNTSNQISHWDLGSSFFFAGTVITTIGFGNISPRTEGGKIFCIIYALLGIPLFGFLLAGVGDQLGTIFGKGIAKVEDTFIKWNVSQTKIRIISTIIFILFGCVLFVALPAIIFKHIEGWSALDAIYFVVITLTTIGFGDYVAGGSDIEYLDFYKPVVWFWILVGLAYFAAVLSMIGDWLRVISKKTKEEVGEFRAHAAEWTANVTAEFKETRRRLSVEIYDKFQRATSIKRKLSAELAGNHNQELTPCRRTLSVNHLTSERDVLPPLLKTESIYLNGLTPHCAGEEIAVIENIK
Description: (§2) For recordings of K^+ channel currents, we prepared stable cell lines for TREK-1, TWIK-related acid-sensitive K^+ channel (TASK-1), strongly inwardly rectifying K^+ channel (Kir2.1), and human ether-a-go-go-related gene (HERG-1) channels and transiently expressed other channels in 293T cells using a calcium-phosphate transfection method. For the establishment of the stable lines, we used lentiviral vectors, and the preparation methods for the lentiviral vectors were described in our previous report. TR-1 cells, which stably expressed TREK-1 channel and were grown on a small cover glass (3 × 18 mm), were placed in a recording chamber with an internal volume of 200 μl. Whole-cell currents were recorded in Tyrode solution using an Axopatch 200B amplifier (Axon Instruments, Foster City, CA) at 25°C. […] Perfusion (100 μl/min) was continued to maintain the water level throughout recordings. pH and osmotic pressure of solutions were measured with a pH meter (Horiba, Kyoto, Japan) and a freezing point osmometer (Knauer, Berlin, Germany), respectively.
We previously prepared a lentiviral vector that expressed the TREK-1 channel and using this vector we established a cell line, TR-1, which stably expressed the channel. […] Immediately after whole-cell access, small outward currents were recorded in response to depolarizing step pulses (Fig 1A, 0 min). […]

TREK-2 channel [3] = biological target: T2, TREK-2 channel (Homo sapiens, UniProt P57789); assay: whole-cell patch-clamp of TREK-2 currents transiently expressed in 293T cells; format: cell-based; conditions: bupivacaine 3 mM, after ostruthin
T2 construct: expressed in transfected cells; host or cells: 293T (transient, calcium-phosphate transfection)
T2 sequence (P57789 1-538): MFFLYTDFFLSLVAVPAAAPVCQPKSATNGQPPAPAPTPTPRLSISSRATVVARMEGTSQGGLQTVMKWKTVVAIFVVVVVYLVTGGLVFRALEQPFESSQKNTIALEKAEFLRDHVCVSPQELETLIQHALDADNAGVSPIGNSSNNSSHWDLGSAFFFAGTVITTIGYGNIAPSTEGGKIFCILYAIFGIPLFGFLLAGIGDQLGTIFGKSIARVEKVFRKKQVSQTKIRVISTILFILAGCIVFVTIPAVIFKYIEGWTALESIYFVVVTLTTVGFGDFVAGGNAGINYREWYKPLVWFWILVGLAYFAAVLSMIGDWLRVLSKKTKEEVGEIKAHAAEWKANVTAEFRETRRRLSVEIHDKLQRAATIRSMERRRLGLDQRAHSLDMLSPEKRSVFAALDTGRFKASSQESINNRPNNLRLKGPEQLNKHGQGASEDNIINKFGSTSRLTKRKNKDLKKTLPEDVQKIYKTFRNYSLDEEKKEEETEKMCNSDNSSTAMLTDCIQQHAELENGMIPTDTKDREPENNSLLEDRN
Description: as §2
TREK-1 channels are known to be activated by low pH and mechanical stretch. […] To test these possibilities, we measured the pH of Tyrode solution before and after addition of 100 μM ostruthin, and observed no significant change (from 7.31 ± 0.17 to 7.33 ± 0.22, p = 0.645, paired t-test, n = 6). […]

TREK-2 channel [4] = biological target: T2, TREK-2 channel; design: method as in PMID 10880510; conditions: 100 μM; cited from earlier work

Row | Compound | number of entries to the open arm [1] | time spent immobile [2] | inhibition of the ostruthin-increased TREK-1 current (TREK-1 channel) | block of TREK-2 current (TREK-2 channel [3]) | sensitivity of TREK-2 channel to bupivacaine (TREK-2 channel [4])
1 | CCOC(=O)C1=C(COCCN)NC(C)=C(C(=O)OC)C1c1ccccc1Cl (centres unmarked) [amlodipine, reference compound] | non-significantly decreased | non-significantly decreased |  |  | 
2 | CCCCN1CCCCC1C(=O)Nc1c(C)cccc1C (centres unmarked) [bupivacaine, reference compound] |  |  | inhibited nearly completely | almost blocked the current | insensitive
